Data from PMC5967629 (Bioorganic & medicinal chemistry, 2018).
One block for each compound: values may come before it.

How the values were obtained:
MDA-MB-435 cancer cells = assay: SRB antiproliferative assay in MDA-MB-435 cells; assay type: cell-based; conditions: for antiproliferative activity (in words): MDA-MB-435 cells, Table 2; for fold less potent than 1 in MDA-MB-435 cells: relative to IC50 of 1
Parental SK-OV-3 = assay: SRB assay in parental SK-OV-3 cells; assay type: cell-based; conditions: Homo sapiens, SK-OV-3, read-out: IC50 ± SD Parental SK-OV-3
[1] = Metabolite identification of 3 in human liver microsomes; assay type: in vitro ADME; conditions: 3 at 20 μM incubated with human liver microsomes
A-10 cells = assay type: cell-based; conditions: for microtubule depolymerization activity (in words): A-10 cells, Table 2

Compound: COc1ccc(N(C)c2nc(C)nc3c2CCC3)cc1 [Compound 1]
- IC50 (MDA-MB-435 cancer cells; Homo sapiens, MDA-MB-435, read-out: IC50 ± SD (MDA-MB-435) Cancer cells): 7 ± 0.7 nM
- IC50 (Parental SK-OV-3): 11.3 ± 0.2 nM

Compound: Cc1nc2c(c(N(C)c3ccc(O)cc3)n1)CCC2 [Compound 2, N-(4-Hydroxylphenyl)-N,2-dimethyl-6,7-dihydro-5H-cyclopenta[d]pyrimidin-4-amine]
- antiproliferative activity (in words) (MDA-MB-435 cancer cells): low activity

- MS Peak Area in 60 min sample, HPLC area [1]: 2,061,000
Compound: CSc1ccc(N(C)c2nc(C)nc3c2CCC3)cc1 [Compound 3, N-(4-Methiophenyl)-N,2-dimethyl-6,7-dihydro-5H-cyclopenta[d]pyrimidin-4-amine]

- MS Peak Area in 60 min sample, HPLC area [1]: 2,199,500
Compound: Cc1nc2c(c(N(C)c3ccc([S+](C)[O-])cc3)n1)CCC2 (stereo not shown) [Compound 5, N-(4-Methylsulfinylphenyl)-N,2-dimethyl-6,7-dihydro-5H-cyclopenta[d]pyrimidin-4-amine]

- MS Peak Area in 60 min sample, HPLC area [1]: 98,900
Compound: Cc1nc2c(c(N(C)c3ccc(S(C)(=O)=O)cc3)n1)CCC2 [Compound 6, N-(4-Methylsulfonylphenyl)-N,2-dimethyl-6,7-dihydro-5H-cyclopenta[d]pyrimidin-4-amine]
- microtubule depolymerization activity (in words) (A-10 cells): inactive

Compound: CNc1ccc(N(C)c2nc(C)nc3c2CCC3)cc1 [Compound 7, N-(4-Methylaminophenyl)-N,2-dimethyl-6,7-dihydro-5H-cyclopenta[d]pyrimidin-4-amine]
- fold less potent than 1 in MDA-MB-435 cells (MDA-MB-435 cancer cells): 2.9 fold

Compound: Cc1nc2c(c(N(C)c3ccc(N)cc3)n1)CCC2 [Compound 8, N-(4-Aminophenyl)-N,2-dimethyl-6,7-dihydro-5H-cyclopenta[d]pyrimidin-4-amine]
- antiproliferative activity (in words) (MDA-MB-435 cancer cells): low activity

Compound: Cc1nc2c(c(N(C)c3ccc4c(c3)CCO4)n1)CCC2 [Compound 9, N-(2,3-Dihydrobenzofuran-5-yl)-N,2-dimethyl-6,7-dihydro-5H-cyclopenta[d]pyrimidin-4-amine]
- fold less potent than 1 in MDA-MB-435 cells (MDA-MB-435 cancer cells): 1.7 fold

Compound: COc1ccc(N(C)c2nc(C)nc3c2CCC3)cc1C [Compound 10, N-(3-Methyl-4-methoxylphenyl)-N,2-dimethyl-6,7-dihydro-5H-cyclopenta[d]pyrimidin-4-amine]
- fold less potent than 1 in MDA-MB-435 cells (MDA-MB-435 cancer cells): about 2.6 fold

Compound: COc1ccc(CN(C)c2nc(C)nc3c2CCC3)cc1 [Compound 12, N-(4-Methoxylphenyl)methyl-N,2-dimethyl-6,7-dihydro-5H-cyclopenta[d]pyrimidin-4-ammonium chloride]
- antiproliferative activity (in words) (MDA-MB-435 cancer cells): poor MDA-MB-435 inhibitory activity

Compound: COc1ccc([C@H](C)N(C)c2nc(C)nc3c2CCC3)cc1 [Compound 13, N-[1(1S)-(4-Methoxylphenyl)ethyl]-N,2-dimethyl-6,7-dihydro-5H-yclopenta[d]pyrimidin-4-amine]
- microtubule depolymerization activity (in words) (A-10 cells): devoid of any microtubule depolymerization activity

Compound: COc1ccc([C@@H](C)N(C)c2nc(C)nc3c2CCC3)cc1 [Compound 14, N-[1(1R)-(4-Methoxylphenyl)ethyl]-N,2-dimethyl-6,7-dihydro-5H-cyclopenta[d]pyrimidin-4-amine]
- microtubule depolymerization activity (in words) (A-10 cells): devoid of any microtubule depolymerization activity

- EC50 (A-10 cells; read-out: EC50 in A-10 cells, microtubule depolymerizing activity): > 10000 nM
Compound: N-(4-Methoxycyclohexyl)-N,2-dimethyl-6,7-dihydro-5H-cyclopenta[d]pyrimidin-4-amine [Compound 11]
- microtubule depolymerization activity (in words) (A-10 cells): devoid of any microtubule depolymerization activity
